Reference: the NIST ThermoML archive (doi:10.1016/j.jct.2018.08.035)

Assay: xn = mol fraction of the nth substance listed
Conditions: 100 kPa, Liquid, Vibrating tube method

CCC(O)CC [3-pentanol] + C[N+](=O)[O-]
Conditions | mass density [kg/m3]
291.86 K, x1 = 0.325 | 974.982
291.86 K, x1 = 0.363 | 961.613
291.86 K, x1 = 0.407 | 946.991
291.86 K, x1 = 0.488 | 922.68
291.86 K, x1 = 0.546 | 907.193
291.86 K, x1 = 0.587 | 896.735
291.95 K, x1 = 0.246 | 1005.58
291.95 K, x1 = 0.275 | 993.548
291.95 K, x1 = 0.3 | 984.145
291.95 K, x1 = 0.325 | 974.857
291.95 K, x1 = 0.338 | 970.048
291.95 K, x1 = 0.363 | 961.485
291.95 K, x1 = 0.382 | 954.991
291.95 K, x1 = 0.407 | 946.861
291.95 K, x1 = 0.414 | 944.587
291.95 K, x1 = 0.486 | 923.287
291.95 K, x1 = 0.488 | 922.559
291.95 K, x1 = 0.573 | 900.26
291.95 K, x1 = 0.587 | 896.628
291.95 K, x1 = 0.615 | 889.805
291.96 K, x1 = 0.266 | 997.055
291.96 K, x1 = 0.546 | 907.079
292.05 K, x1 = 0.246 | 1005.45
292.05 K, x1 = 0.275 | 993.426
292.05 K, x1 = 0.382 | 954.866
292.05 K, x1 = 0.414 | 944.459
292.05 K, x1 = 0.486 | 923.167
292.05 K, x1 = 0.573 | 900.153
292.05 K, x1 = 0.615 | 889.701
292.06 K, x1 = 0.266 | 996.934
292.06 K, x1 = 0.3 | 984.022
292.06 K, x1 = 0.325 | 974.734
292.06 K, x1 = 0.338 | 969.925
292.06 K, x1 = 0.363 | 961.36
292.06 K, x1 = 0.407 | 946.736
292.06 K, x1 = 0.488 | 922.439
292.06 K, x1 = 0.546 | 906.966
292.06 K, x1 = 0.587 | 896.519
292.15 K, x1 = 0.246 | 1005.33
292.15 K, x1 = 0.325 | 974.609
292.15 K, x1 = 0.338 | 969.8
292.15 K, x1 = 0.382 | 954.742
292.15 K, x1 = 0.414 | 944.336
292.15 K, x1 = 0.486 | 923.052
292.15 K, x1 = 0.488 | 922.322
292.16 K, x1 = 0.266 | 996.81
292.16 K, x1 = 0.275 | 993.303
292.16 K, x1 = 0.3 | 983.896
292.16 K, x1 = 0.363 | 961.234
292.16 K, x1 = 0.407 | 946.608
292.16 K, x1 = 0.546 | 906.853
292.16 K, x1 = 0.573 | 900.046
292.16 K, x1 = 0.587 | 896.411
292.16 K, x1 = 0.615 | 889.595
292.16 K, x1 = 0.629 | 886.146
293.15 K, x1 = 0.266 | 995.587
293.15 K, x1 = 0.338 | 968.578
293.15 K, x1 = 0.546 | 905.746
293.16 K, x1 = 0.246 | 1004.11
293.16 K, x1 = 0.275 | 992.082
293.16 K, x1 = 0.3 | 982.679
293.16 K, x1 = 0.325 | 973.389
293.16 K, x1 = 0.363 | 960.014
293.16 K, x1 = 0.382 | 953.524
293.16 K, x1 = 0.407 | 945.397
293.16 K, x1 = 0.414 | 943.126
293.16 K, x1 = 0.486 | 921.889
293.16 K, x1 = 0.488 | 921.165
293.16 K, x1 = 0.573 | 898.962
293.16 K, x1 = 0.587 | 895.341
293.16 K, x1 = 0.615 | 888.546
293.16 K, x1 = 0.629 | 885.109
294.15 K, x1 = 0.246 | 1002.88
294.15 K, x1 = 0.266 | 994.369
294.15 K, x1 = 0.275 | 990.864
294.15 K, x1 = 0.3 | 981.466
294.15 K, x1 = 0.325 | 972.183
294.15 K, x1 = 0.338 | 967.375
